In general, melting point refers to the temperature, or range, at which the solid turns liquid.

Experimental findings from patent US20220030867A1 (priority 2018, published 2022) are described below.

Bounds are passed on as bounds.

For series [1], the system named is Fusarium culmorum. The experiment in a line: whole plant or invertebrate. The conditions noted are these: in Triticum aestivum, read-out: control of Fusarium culmorum. It counts as in vivo, Fusarium culmorum on wheat spikelets cv. Monsun.
The subject of series [2] is Magnaporthe grisea (Pyricularia oryzae). The experiment in a line: microbe, parasite or virus in culture. The class given is cell-based. As to conditions: read-out: control of Magnaporthe grisea.
The test system is the same in series [3]. As to the kind of experiment: whole plant or invertebrate. It counts as in vivo, Magnaporthe grisea on rice leaf segments cv. Ballila. The conditions noted are these: foliar, read-out: control of Magnaporthe grisea.
For the next series, the system named is Sclerotinia sclerotiorum. The experiment in a line: Sclerotinia sclerotiorum / liquid culture (cottony rot). The class given is cell-based. The conditions noted are these: growth inhibition photometrically 3-4 days after application, vs untreated control. The procedure: Sclerotinia sclerotiorum/Liquid Culture (Cottony Rot)
Mycelia fragments of a newly grown liquid culture of the fungus are directly mixed into nutrient broth (Vogels broth). After placing a (DMSO) solution of test compound into a microtiter plate (96-well format) the nutrient broth containing the fungal material is added. The test plates are incubated at 24° C. and the inhibition of growth is determined photometrically 3-4 days after application.

The test system of series [4] is Glomerella lagenarium (Colletotrichum lagenarium). As to the kind of experiment: Glomerella lagenarium (Colletotrichum lagenarium) / liquid culture (anthracnose). It counts as cell-based. As to conditions: Colletotrichum orbiculare, growth inhibition photometrically 3-4 days after application, vs untreated control. The protocol:
Conidia of the fungus from cryogenic storage are directly mixed into nutrient broth (PDB potato dextrose broth). After placing a (DMSO) solution of test compound into a microtiter plate (96-well format), the nutrient broth containing the fungal spores is added. The test plates are incubated at 24° C. and the inhibition of growth is measured photometrically 3-4 days after application.

Series [5] concerns Fusarium culmorum. As to the kind of experiment: microbe, parasite or virus in culture. The class given is cell-based. As to conditions: read-out: control of Fusarium culmorum.
Series [6] has as its system Botryotinia fuckeliana (Botrytis cinerea). As to the kind of experiment: Botryotinia fuckeliana (Botrytis cinerea) / liquid culture (gray mould). The conditions noted are these: growth inhibition photometrically 3-4 days after application, vs untreated control. It counts as cell-based. The protocol:
Botryotinia fuckeliana (Botrytis cinerea)/Liquid Culture (Gray Mould)
Conidia of the fungus from cryogenic storage are directly mixed into nutrient broth (Vogels broth). After placing a (DMSO) solution of test compound into a microtiter plate (96-well format), the nutrient broth containing the fungal spores is added. The test plates are incubated at 24° C. and the inhibition of growth is determined photometrically 3-4 days after application.

For `C#CCC(C)(Cc1ccccc1)C(=O)Nc1cc2cccc(F)c2nc1C` (stereo not drawn) [Compound E-2, 2-benzyl-N-(8-fluoro-2-methyl-3-quinolyl)-2-methyl-pent-4-ynamide], the pest or weed control at 200 ppm (in the series with Fusarium culmorum [1]; in series [3]) was at least 80% each time. The inhibition of growth at 200 ppm in series [2] was at least 80%.

In the case of `C#CCC(C)(Cc1ccccc1)C(=O)Nc1cnc2c(F)cccc2c1C` (stereo not drawn) [Compound E-3, 2-benzyl-N-(8-fluoro-4-methyl-3-quinolyl)-2-methyl-pent-4-ynamide], in series [2], the inhibition of growth at 200 ppm was at least 80%.

Compound `C=C(Cl)CC(Cc1ccccc1)C(=O)Nc1cnc2c(F)cccc2c1C` (stereo not drawn) [Compound E-5, 2-benzyl-4-chloro-N-(8-fluoro-4-methyl-3-quinolyl)pent-4-enamide] registered a melting point of 53 to 58 °C. This compound gave an inhibition of growth at 20 ppm with Sclerotinia sclerotiorum of at least 80%. Also, the pest or weed control at 200 ppm in the series with Fusarium culmorum [1] is at least 80%. Also, the inhibition of growth at 200 ppm in series [2] was at least 80%.

`C=C(Cl)CC(Cc1ccccc1)C(=O)Nc1cnc2c(F)cccc2c1` (stereo not drawn) [Compound E-6, 2-benzyl-4-chloro-N-(8-fluoro-3-quinolyl)-pent-4-enamide] returned a melting point of 166 to 168 °C. Besides, the inhibition of growth at 200 ppm in series [2] is at least 80%. Further, in series [3], the pest or weed control at 200 ppm is at least 80%.

For the compound `Cc1c(NC(=O)C(C)(Cc2ccccc2)CC(F)(F)F)cnc2c(F)cccc12` (stereo not drawn) [Compound E-50, 2-benzyl-4,4,4-trifluoro-N-(8-fluoro-4-methyl-3-quinolyl)-2-methyl-butanamide], the melting point lay in the range of 106 to 109 °C. Moreover, the pest or weed control at 200 ppm with Fusarium culmorum [1] was at least 80%. Moreover, in series [3], the pest or weed control at 200 ppm was at least 80%.

Consider `C=CCC(C)(Cc1ccccc1)C(=O)Nc1cnc2c(F)cccc2c1` (stereo not drawn) [Compound E-78, 2-benzyl-N-(8-fluoro-3-quinolyl)-2-methyl-pent-4-enamide], for which the melting point is 146 to 149 °C. In the series with Fusarium culmorum [1], the pest or weed control at 200 ppm is at least 80%. Further, the inhibition of growth at 200 ppm in series [2] was at least 80%.

For the compound `Cc1c(NC(=O)C(C)(Cc2ccccc2)CC(C)C)cnc2c(F)cccc12` (stereo not drawn) [Compound E-84, 2-benzyl-N-(8-fluoro-4-methyl-3-quinolyl)-2,4-dimethyl-pentanamide], the melting point was in the range of 73 to 79 °C. For the same compound, the inhibition of growth at 20 ppm with Sclerotinia sclerotiorum was at least 80%. For the same compound, in the series with Fusarium culmorum [1], the pest or weed control at 200 ppm is at least 80%. In series [2], the inhibition of growth at 200 ppm was at least 80%.

In the case of `CC(C)CC(C)(Cc1ccccc1)C(=O)Nc1cnc2ccccc2c1` (stereo not drawn) [Compound E-85, 2-benzyl-2,4-dimethyl-N-(3-quinolyl)pentanamide], the melting point fell in the range of 147 to 148 °C. Moreover, in series [2], the inhibition of growth at 200 ppm is at least 80%.

Compound `Cc1nc2c(F)cccc2cc1NC(=O)C(C)(Cc1ccccc1)CC(C)C` (stereo not drawn) [Compound E-86, 2-benzyl-N-(8-fluoro-2-methyl-3-quinolyl)-2,4-dimethyl-pentanamide] registered an inhibition of growth at 20 ppm in the series with Sclerotinia sclerotiorum of at least 80%. In the series on Fusarium culmorum [1], the pest or weed control at 200 ppm is at least 80%. The inhibition of growth at 200 ppm in series [2] is at least 80%.

As to `C=C(C)CC(Cc1ccccc1)C(=O)Nc1cnc2c(F)cccc2c1` (stereo not drawn) [Compound E-94, 2-benzyl-N-(8-fluoro-3-quinolyl)-4-methyl-pent-4-enamide], the melting point fell in the range of 170 to 172 °C. In series [2], the inhibition of growth at 200 ppm was at least 80%.

With `C#CCC(Cc1ccccc1)C(=O)Nc1cnc2c(F)cccc2c1C` (stereo not drawn) [Compound E-95], the inhibition of growth at 200 ppm in series [2] was at least 80%.

As to `CC(C)(C)CC(Cc1ccccc1)C(=O)Nc1cnc2c(F)cccc2c1` (stereo not drawn) [Compound E-98, 2-benzyl-N-(8-fluoro-3-quinolyl)-4,4-dimethyl-pentanamide], the inhibition of growth at 200 ppm (in series [4]; in the series with Fusarium culmorum [5]; in series [6]; in series [2]) was at least 80% each time. Further, the pest or weed control at 200 ppm in series [3] was at least 80%.

On to `Cc1nc2c(F)cccc2cc1NC(=O)C(C)(Cc1ccccc1)CC1(C)CC1` (stereo not drawn) [Compound E-99, 2-benzyl-N-(8-fluoro-2-methyl-3-quinolyl)-2-methyl-3-(1-methylcyclopropyl)propanamide], for which the melting point was 151 to 152 °C. In series [4], this compound registered an inhibition of growth at 200 ppm of at least 80%. Besides, the inhibition of growth at 200 ppm with Fusarium culmorum [5] is at least 80%. The same compound had an inhibition of growth at 200 ppm in series [6] of at least 80%. In addition, in the series on Fusarium culmorum [1], the pest or weed control at 200 ppm was at least 80%. In addition, the inhibition of growth at 200 ppm in series [2] is at least 80%. Moreover, the pest or weed control at 200 ppm in series [3] was at least 80%.

Turning to `Cc1c(NC(=O)[C@@](C)(Cc2ccccc2)CC(C)C)cnc2c(F)cccc12` [Compound F-4, (2R)-2-benzyl-N-(8-fluoro-4-methyl-3-quinolyl)-2,4-dimethyl-pentanamide], the inhibition of growth at 20 ppm with Sclerotinia sclerotiorum was at least 80%. Besides, the pest or weed control at 200 ppm (in the series on Fusarium culmorum [1]; in series [3]) was at least 80% in each case. Besides, the inhibition of growth at 200 ppm in series [2] is at least 80%.

On to `CC(C)C[C@](C)(Cc1ccccc1)C(=O)Nc1cnc2c(F)cccc2c1` [Compound F-19, (2R)-2-benzyl-N-(8-fluoro-3-quinolyl)-2,4-dimethyl-pentanamide], for which the pest or weed control at 200 ppm in the series on Fusarium culmorum [1] is at least 80%. In addition, in series [2], the inhibition of growth at 200 ppm is at least 80%.

Compound `CC(C)C[C@@](C)(Cc1ccccc1)C(=O)Nc1cnc2c(F)cccc2c1` [Compound F-20, (2S)-2-benzyl-N-(8-fluoro-3-quinolyl)-2,4-dimethyl-pentanamide] had an inhibition of growth at 20 ppm in the series on Sclerotinia sclerotiorum of at least 80%. Moreover, the pest or weed control at 200 ppm in the series on Fusarium culmorum [1] was at least 80%. Further, in series [2], the inhibition of growth at 200 ppm was at least 80%.

On to `C=C(C)C[C@@](C)(Cc1ccccc1)C(=O)Nc1cnc2c(F)cccc2c1` [Compound F-21, (2S)-2-benzyl-N-(8-fluoro-3-quinolyl)-2,4-dimethyl-pent-4-enamide], for which the inhibition of growth at 20 ppm in the series on Sclerotinia sclerotiorum is at least 80%. Also, the pest or weed control at 200 ppm (with Fusarium culmorum [1]; in series [3]) was at least 80% throughout. Besides, in series [2], the inhibition of growth at 200 ppm was at least 80%.

Consider `C=C(C)C[C@](C)(Cc1ccccc1)C(=O)Nc1cnc2c(F)cccc2c1` [Compound F-22, (2R)-2-benzyl-N-(8-fluoro-3-quinolyl)-2,4-dimethyl-pent-4-enamide], for which, in series [2], the inhibition of growth at 200 ppm is at least 80%.

Consider `C=C(Cl)C[C@H](Cc1ccccc1)C(=O)Nc1cc2cccc(F)c2nc1C` [Compound F-26, (2S)-2-benzyl-4-chloro-N-(8-fluoro-2-methyl-3-quinolyl)pent-4-enamide], for which the inhibition of growth at 200 ppm (in series [4]; with Fusarium culmorum [5]; in series [6]; in series [2]) was at least 80% in each case. Besides, in the series with Sclerotinia sclerotiorum, the inhibition of growth at 20 ppm was at least 80%. For the same compound, the pest or weed control at 200 ppm (with Fusarium culmorum [1]; in series [3]) was at least 80% each time.

As for `Cc1nc2c(F)cccc2cc1NC(=O)[C@@](C)(Cc1cccc(F)c1)CC(F)(F)F` [Compound F-31, (2S)-4,4,4-trifluoro-N-(8-fluoro-2-methyl-3-quinolyl)-2-[(3-fluorophenyl)methyl]-2-methyl-butanamide], the inhibition of growth at 200 ppm in series [4] and in series [6] was at least 80% each time. Also, the inhibition of growth at 20 ppm in the series on Sclerotinia sclerotiorum was at least 80%. Also, the pest or weed control at 200 ppm (in the series on Fusarium culmorum [1]; in series [3]) was at least 80% in each case.

On to `Cc1nc2c(F)cccc2cc1NC(=O)[C@H](Cc1ccccc1)CC(C)(C)C` [Compound F-33, (2S)-2-benzyl-N-(8-fluoro-2-methyl-3-quinolyl)-4,4-dimethyl-pentanamide], for which the inhibition of growth at 200 ppm (in series [4]; with Fusarium culmorum [5]; in series [6]; in series [2]) was at least 80% throughout.

As for `Cc1nc2c(F)cccc2cc1NC(=O)[C@H](Cc1ccccc1)CC1(C)CC1` [Compound F-37, (2S)-2-benzyl-N-(8-fluoro-2-methyl-3-quinolyl)-3-(1-methylcyclopropyl)propanamide], the inhibition of growth at 200 ppm (in series [4]; in the series on Fusarium culmorum [5]; in series [6]; in series [2]) was at least 80% in each case. Besides, the pest or weed control at 200 ppm in the series on Fusarium culmorum [1] was at least 80%.

For `Cc1c(NC(=O)[C@H](Cc2ccccc2)CC2(C)CC2)cnc2c(F)cccc12` [Compound F-39, (2S)-2-benzyl-N-(8-fluoro-4-methyl-3-quinolyl)-3-(1-methylcyclopropyl)propanamide], the inhibition of growth at 200 ppm (in series [4]; in the series with Fusarium culmorum [5]; in series [6]; in series [2]) was at least 80% in each case.

Regarding `C=C(Cl)C[C@@](C)(Cc1ccccc1)C(=O)Nc1cc2cccc(F)c2nc1C` [Compound F-43, (2R)-2-benzyl-4-chloro-N-(8-fluoro-2-methyl-3-quinolyl)-2-methyl-pent-4-enamide], the inhibition of growth at 200 ppm in series [4] and in series [6] was at least 80% each time. Also, the pest or weed control at 200 ppm (in the series on Fusarium culmorum [1]; in series [3]) was at least 80% in each case.
